Tests used:
HSP90a protein = target: T1, HSP90a protein (Homo sapiens, UniProt P07900); test: HSP90α-binding fluorescent polarization (FP) assay, BODIPY-labeled RNK04010 probe; conditions: FP competition with RNK04010 (BODIPY-labeled), 5 nM, 300 min at 25° C.
T1 construct: purchased BPS Bioscience 50298
How it was run: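 Displacement of a 5 nM fluorescent HSP90 ligand from the N-terminal HSP90a domain by FP. Incubation ran at 25° C: 120 min for the FITC-geldanamycin tracer, 300 min for the BODIPY-conjugated triazolone RNK04010.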

[1] = tested on: NCI-H358 human non-small cell lung cancer; test: NCI-H358 CCK-8 proliferation assay; format: cell-based; conditions: NCI-H358 cells, 72 hr
How it was run: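 Three KRAS(G12C) lines are used, MIA PaCa-2 at two mutant copies and the NSCLC lines NCI-H358 and NCI-H23 at one. Each compound is titrated 3-fold from 20 μM to 1.02 nM, and proliferation is scored by CCK-8.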

IC50 (HSP90a protein) [nM] | EC50 [1] [nM] | Compound
100 to 1000 | > 1000 | CCC(=O)N1CCN(c2nc(NCCC(=O)N3CCN(Cc4ccc(-n5c(O)nnc5-c5cc(C(C)C)c(O)cc5O)cc4)CC3)nc3c2CCN(c2cc(O)cc4ccccc24)C3)CC1 [Compound 35, 1-(4-(4-(3-(2,4-dihydroxy-5-isopropylphenyl)-5-hydroxy-4H-1,2,4-triazol-4-yl)benzyl)piperazin-1-yl)-3-((7-(3-hydroxynaphthalen-1-yl)-4-(4-propionylpiperazin-1-yl)-5,6,7,8-tetrahydropyrido[3,4-d]pyrimidin-2-yl)amino)propan-1-one, trifluoroacetic acid]
100 to 1000 | > 1000 | CC(=O)N1CCN(c2nc(NCCC(=O)N3CCN(Cc4ccc(-n5c(O)nnc5-c5cc(C(C)C)c(O)cc5O)cc4)CC3)nc3c2CCN(c2cc(O)cc4ccccc24)C3)CC1 [Compound 26, 3-((4-(4-acetylpiperazin-1-yl)-7-(3-hydroxynaphthalen-1-yl)-5,6,7,8-tetrahydropyrido[3,4-d]pyrimidin-2-yl)amino)-1-(4-(4-(3-(2,4-dihydroxy-5-isopropylphenyl)-5-hydroxy-4H-1,2,4-triazol-4-yl)benzyl)piperazin-1-yl)propan-1-one, trifluoroacetic acid]
100 to 1000 | > 1000 | C=CC(=O)N1CCN(c2nc(NCCC(=O)N3CCN(c4ccc(-n5c(O)nnc5-c5cc(C(C)C)c(O)cc5O)cc4)CC3)nc3c2CCN(c2cc(O)cc4ccccc24)C3)CC1 [Compound 2, 1-(4-(2-((3-(4-(4-(3-(2,4-dihydroxy-5-isopropylphenyl)-5-hydroxy-4H-1,2,4-triazol-4-yl)phenyl)piperazin-1-yl)-3-oxopropyl)amino)-7-(3-hydroxynaphthalen-1-yl)-5,6,7,8-tetrahydropyrido[3,4-d]pyrimidin-4-yl)piperazin-1-yl)prop-2-en-1-one, trifluoroacetic acid]
100 to 1000 | > 1000 | CCc1cc(C(=O)N2Cc3ccc(CN4CCN(C(=O)CCNc5nc6c(c(N7CCN(C(C)=O)CC7)n5)CCN(c5cc(O)cc7ccccc57)C6)CC4)cc3C2)c(O)cc1O [Compound 67, 3-((4-(4-acetylpiperazin-1-yl)-7-(3-hydroxynaphthalen-1-yl)-5,6,7,8-tetrahydropyrido[3,4-d]pyrimidin-2-yl)amino)-1-(4-((2-(5-ethyl-2,4-dihydroxybenzoyl)isoindolin-5-yl)methyl)piperazin-1-yl)propan-1-one, trifluoroacetic acid]
> 1000 | > 1000 | CC(=O)N1CCN(c2nc(NCCC(=O)N3CCC(Cc4ccc(CN(C)Cc5ccc(-n6c(C(=O)NCC(F)(F)F)nnc6-c6cc(C)c(O)cc6O)cc5)cc4)CC3)nc3c2CCN(c2cc(O)cc4ccccc24)C3)CC1 [Compound 114, 4-(4-(((4-((1-(3-((4-(4-acetylpiperazin-1-yl)-7-(3-hydroxynaphthalen-1-yl)-5,6,7,8-tetrahydropyrido[3,4-d]pyrimidin-2-yl)amino)propanoyl)piperidin-4-yl)methyl)benzyl)(methyl)amino)methyl)phenyl)-5-(2,4-dihydroxy-5-methylphenyl)-N-(2,2,2-trifluoroethyl)-4H-1,2,4-triazole-3-carboxamide, trifluoroacetic acid]
< 100 | > 1000 | C=CC(=O)N1CCN(c2nc(NCCC(=O)NCC3CCN(C(=O)C4CCN(Cc5ccc(-n6c(O)nnc6-c6cc(CC)c(O)cc6O)cc5)CC4)CC3)nc3c2CCN(c2cccc4cccc(Cl)c24)C3)C[C@H]1CC#N [Compound 104, (R)-3-((4-(4-acryloyl-3-(cyanomethyl)piperazin-1-yl)-7-(8-chloronaphthalen-1-yl)-5,6,7,8-tetrahydropyrido[3,4-d]pyrimidin-2-yl)amino)-N-((1-(1-(4-(3-(5-ethyl-2,4-dihydroxyphenyl)-5-hydroxy-4H-1,2,4-triazol-4-yl)benzyl)piperidine-4-carbonyl)piperidin-4-yl)methyl)propanamide, trifluoroacetic acid]
> 1000 | > 1000 | CCC(=O)N1CCN(c2nc(NCCC(=O)NCc3ccc(-n4c(O)nnc4-c4cc(C)c(O)cc4O)cc3)nc3c2CCN(c2cc(O)cc4ccccc24)C3)CC1 [Compound 30, N-(4-(3-(2,4-dihydroxy-5-methylphenyl)-5-hydroxy-4H-1,2,4-triazol-4-yl)benzyl)-3-((7-(3-hydroxynaphthalen-1-yl)-4-(4-propionylpiperazin-1-yl)-5,6,7,8-tetrahydropyrido[3,4-d]pyrimidin-2-yl)amino)propanamide, trifluoroacetic acid]
100 to 1000 | > 1000 | CCC(=O)N1CCN(c2nc(NCCC(=O)N3CCC(CN4CCN(Cc5ccc(-n6c(O)nnc6-c6ccc(O)cc6O)cc5)CC4)CC3)nc3c2CCN(c2cc(O)cc4ccccc24)C3)CC1 [Compound 65, 1-(4-((4-(4-(3-(2,4-dihydroxyphenyl)-5-hydroxy-4H-1,2,4-triazol-4-yl)benzyl)piperazin-1-yl)methyl)piperidin-1-yl)-3-((7-(3-hydroxynaphthalen-1-yl)-4-(4-propionylpiperazin-1-yl)-5,6,7,8-tetrahydropyrido[3,4-d]pyrimidin-2-yl)amino)propan-1-one, trifluoroacetic acid]
100 to 1000 | > 1000 | C=CC(=O)N1CCN(c2nc(NCCC(=O)N3CCN(c4ccc(-n5c(O)nnc5-c5cc(C(C)C)c(O)cc5O)cc4)CC3)nc3c2CCN(c2cccc4ccccc24)C3)C[C@H]1CC#N [Compound 90, (R)-2-(1-acryloyl-4-(2-((3-(4-(4-(3-(2,4-dihydroxy-5-isopropylphenyl)-5-hydroxy-4H-1,2,4-triazol-4-yl)phenyl)piperazin-1-yl)-3-oxopropyl)amino)-7-(naphthalen-1-yl)-5,6,7,8-tetrahydropyrido[3,4-d]pyrimidin-4-yl)piperazin-2-yl)acetonitrile, trifluoroacetic acid]
> 1000 | > 1000 | C=CC(=O)N1CCN(c2nc(NCCC(=O)NCc3ccc(-n4c(O)nnc4-c4cc(C(C)C)c(O)cc4O)cc3)nc3c2CCN(c2cccc4ccccc24)C3)C[C@H]1CC#N [Compound 91, (R)-3-((4-(4-acryloyl-3-(cyanomethyl)piperazin-1-yl)-7-(naphthalen-1-yl)-5,6,7,8-tetrahydropyrido[3,4-d]pyrimidin-2-yl)amino)-N-(4-(3-(2,4-dihydroxy-5-isopropylphenyl)-5-hydroxy-4H-1,2,4-triazol-4-yl)benzyl)propanamide, trifluoroacetic acid]
< 100 | > 1000 | C=CC(=O)N1CCN(c2nc(NCCC(=O)NCCOCCOCCOc3ccc(-n4c(O)nnc4-c4cc(C(C)C)c(O)cc4O)cc3)nc3c2CCN(c2cccc4ccccc24)C3)C[C@@H]1CC#N [Compound 92, (S)-3-((4-(4-acryloyl-3-(cyanomethyl)piperazin-1-yl)-7-(naphthalen-1-yl)-5,6,7,8-tetrahydropyrido[3,4-d]pyrimidin-2-yl)amino)-N-(2-(2-(2-(4-(3-(2,4-dihydroxy-5-isopropylphenyl)-5-hydroxy-4H-1,2,4-triazol-4-yl)phenoxy)ethoxy)ethoxy)ethyl)propanamide, trifluoroacetic acid]
100 to 1000 | 100 to 1000 | C=C(F)C(=O)N1CCN(c2nc(NCCC(=O)NCc3ccc(CN4CCC(Cc5ccc(-n6c(C(=O)NCC(F)(F)F)nnc6-c6cc(C(C)C)c(O)cc6O)cc5)CC4)cc3)nc3c2CCN(c2cc(O)cc4ccccc24)C3)CC1 [Compound 154, 5-(2,4-dihydroxy-5-isopropylphenyl)-4-(4-((1-(4-((3-((4-(4-(2-fluoroacryloyl)piperazin-1-yl)-7-(3-hydroxynaphthalen-1-yl)-5,6,7,8-tetrahydropyrido[3,4-d]pyrimidin-2-yl)amino)propanamido)methyl)benzyl)piperidin-4-yl)methyl)phenyl)-N-(2,2,2-trifluoroethyl)-4H-1,2,4-triazole-3-carboxamide]
100 to 1000 | > 1000 | CCC(=O)N1CCN(c2nc(NCCC(=O)NCc3ccc(-n4c(O)nnc4-c4cc(CC)c(O)cc4O)cc3)nc3c2CCN(c2cc(O)cc4ccccc24)C3)CC1 [Compound 37, N-(4-(3-(5-ethyl-2,4-dihydroxyphenyl)-5-hydroxy-4H-1,2,4-triazol-4-yl)benzyl)-3-((7-(3-hydroxynaphthalen-1-yl)-4-(4-propionylpiperazin-1-yl)-5,6,7,8-tetrahydropyrido[3,4-d]pyrimidin-2-yl)amino)propanamide, trifluoroacetic acid]
100 to 1000 | > 1000 | C=CC(=O)N1CCN(c2nc(NCCC(=O)NCc3ccc(-n4c(O)nnc4-c4cc(C(C)C)c(O)cc4O)cc3F)nc3c2CCN(c2cccc4cccc(Cl)c24)C3)C[C@H]1CC#N [Compound 97, (R)-3-((4-(4-acryloyl-3-(cyanomethyl)piperazin-1-yl)-7-(8-chloronaphthalen-1-yl)-5,6,7,8-tetrahydropyrido[3,4-d]pyrimidin-2-yl)amino)-N-(4-(3-(2,4-dihydroxy-5-isopropylphenyl)-5-hydroxy-4H-1,2,4-triazol-4-yl)-2-fluorobenzyl)propanamide, trifluoroacetic acid]
100 to 1000 | > 1000 | C=CC(=O)N1CCN(c2nc(NCCC(=O)N3CCN(Cc4ccc(-n5c(O)nnc5-c5cc(C(C)C)c(O)cc5O)cc4)CC3)nc3c2CCN(c2cccc4cccc(Cl)c24)C3)C[C@H]1CC#N [Compound 100, (R)-2-(1-acryloyl-4-(7-(8-chloronaphthalen-1-yl)-2-((3-(4-(4-(3-(2,4-dihydroxy-5-isopropylphenyl)-5-hydroxy-4H-1,2,4-triazol-4-yl)benzyl)piperazin-1-yl)-3-oxopropyl)amino)-5,6,7,8-tetrahydropyrido[3,4-d]pyrimidin-4-yl)piperazin-2-yl)acetonitrile, trifluoroacetic acid]

Reference: US20230391772A1, “METHODS AND COMPOSITIONS FOR TARGETED PROTEIN DEGRADATION” (Ranok Therapeutics (Hangzhou) Co. Ltd., priority 2020, published 2023)
